Results reported in PubChem BioAssay (NCI).
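Five compound concentrations were applied to cells in 96-well plates for 48 hours; endpoints were derived by simple linear interpolation of the resulting dose-response curve. The concentration for full growth arrest is given as TGI.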

Experiments:
Experiment in all cases: NCI-60 cell line screen, 48 h
[1] = system: 786-0 renal
[2] = system: A498 renal
[3] = system: A549 NSCLC
[4] = system: ACHN renal
[5] = system: BT-549 breast
[6] = system: CAKI-1 renal
[7] = system: CCRF-CEM leukemia
[8] = system: COLO 205 colon
[9] = system: DU-145 prostate
[10] = system: EKVX NSCLC
[11] = system: HCC-2998 colon
[12] = system: HCT-116 colon
[13] = system: HCT-15 colon
[14] = system: HOP-62 NSCLC
[15] = system: HOP-92 NSCLC
[16] = system: HS 578T breast
[17] = system: HT29 colon
[18] = system: IGROV1 ovarian
[19] = system: K-562 leukemia
[20] = system: KM12 colon
[21] = system: LOX IMVI melanoma
[22] = system: M14 melanoma
[23] = system: MCF7 breast
[24] = system: MDA-MB-231 breast
[25] = system: MDA-MB-435
[26] = system: MOLT-4 leukemia
[27] = system: NCI-H226 lung
[28] = system: NCI-H23 lung
[29] = system: NCI-H522 lung
[30] = system: NCI/ADR-RES ovarian
[31] = system: OVCAR-3 ovarian
[32] = system: OVCAR-4 ovarian
[33] = system: OVCAR-5 ovarian
[34] = system: OVCAR-8 ovarian
[35] = system: PC-3 prostate
[36] = system: RPMI-8226 leukemia
[37] = system: RXF 393 renal
[38] = system: SF-268 CNS
[39] = system: SF-295 CNS
[40] = system: SF-539 CNS
[41] = system: SK-MEL-2 melanoma
[42] = system: SK-MEL-28 melanoma
[43] = system: SK-MEL-5 melanoma
[44] = system: SK-OV-3 ovarian
[45] = system: SN12C renal
[46] = system: SNB-19 CNS
[47] = system: SNB-75 CNS
[48] = system: SW-620 colon
[49] = system: T-47D breast
[50] = system: TK-10 renal
[51] = system: U251 CNS
[52] = system: UACC-257 melanoma
[53] = system: UACC-62 melanoma
[54] = system: UO-31 renal

Measured: TGI

NC1CC(=O)c2ccccc21 (centres undefined)
> 100 µM: all assays above
